Reference: ChEMBL document CHEMBL4392874, “Inhibitory Effects of Phenylpropanoid Derivatives from Oenanthe javanica on Antigen-Stimulated Degranulation in RBL-2H3 Cells” (J Nat Prod, 2019)

Assays:
HeLa = assay: Cytotoxicity against human HeLa cells assessed as reduction in cell viability at 12.5 to 100 ug/ml measured after 12 hrs by crystal violet staining based assay
RBL-2H3 [1] = assay: Antiallergic activity in […]-stimulated rat RBL2H3 cells assessed as inhibition of anti-DNP-IgE-mediated degranulation by measuring decrease in beta-hexosaminidase activity preincubated for 20 mins followed by DNP-BSA stimulation; type: functional, cell-based
RBL-2H3 [2] = assay: Cytotoxicity against rat RBL2H3 cells assessed as reduction in cell viability at 6.3 to 50 ug/ml measured after 3 hrs by CCK8 assay; type: cell-based; conditions: rbl-2h3, 3 h
RBL-2H3 [3] = assay: Antiallergic activity in rat RBL2H3 cells assessed as inhibition of A23187/PMA-induced beta hexosaminidase release after 1 hr by para-nitrophenyl-N-acetyl-beta-d-glucosaminide substrate based assay; type: functional, cell-based
RBL-2H3 [4] = assay: Antiallergic activity in rat RBL2H3 cells assessed as inhibition of A23187-induced beta hexosaminidase release after 1 hr by para-nitrophenyl-N-acetyl-beta-d-glucosaminide substrate based assay; type: functional, cell-based

SMILES: COc1cc(-c2oc3cc(O)cc(O)c3c(=O)c2O)ccc1O [ISORHAMNETIN]
- Activity (HeLa): Non-Toxic

SMILES: O=C(O)C(=Cc1ccc(O)cc1)/C=C/c1ccc(O)cc1 (mixture of isomers)
- inhibition (RBL-2H3 [1]): Dose-dependent effect
- Activity (RBL-2H3 [2]): Non-Toxic
- Activity (HeLa): Non-Toxic
- inhibition (RBL-2H3 [3]): Dose-dependent effect
- inhibition (RBL-2H3 [4]): Dose-dependent effect

SMILES: O=C(/C=C/c1ccc(O)c(O)c1)O[C@H]1[C@@H](C(=O)O)OC(C(=O)O)=C[C@H]1OC(=O)/C=C/c1ccc(O)c(O)c1
- inhibition (RBL-2H3 [1]): Dose-dependent effect
- Activity (RBL-2H3 [2]): Non-Toxic
- Activity (HeLa): Non-Toxic
- inhibition (RBL-2H3 [3]): Dose-dependent effect
- inhibition (RBL-2H3 [4]): Dose-dependent effect

SMILES: O=c1c(O)c(-c2ccc(O)c(O)c2)oc2cc(O)cc(O)c12 [QUERCETIN]
- Activity (HeLa): Toxic

SMILES: O=C1O[C@H](c2ccc(O)cc2)[C@@H](C(=O)O)/C1=C\c1ccc(O)cc1
- inhibition (RBL-2H3 [1]): Dose-dependent effect
- Activity (RBL-2H3 [2]): Non-Toxic
- Activity (HeLa): Non-Toxic
- inhibition (RBL-2H3 [3]): Dose-dependent effect
- inhibition (RBL-2H3 [4]): Dose-dependent effect
